Like-named read-outs stand apart in the source and are kept apart here. Each block holds one compound with its values, some of them ahead of it.
Key:
[1] = system: A431; test: Cell anti-proliferation experiment (CTG); format: cell-based; settings: Homo sapiens, A431 (wild-type EGFR), class symbol
How it was run: (§1)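 Cells were seeded at 1500–2500/well and dosed after ~24 h with compound in a 1:4 dilution series up to 10,000 nM, in triplicate. Viability was read by CTG luminescence after 72 h, normalized to the 0.1% DMSO control and medium blank, and IC50 was obtained by curve fitting.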

[2] = system: A549; test: Cell anti-proliferation experiment (CTG); format: cell-based; settings: Homo sapiens, A549 (wild-type EGFR), class symbol
How it was run: as §1

[3] = system: H1975; test: Cell anti-proliferation experiment (CTG); format: cell-based; settings: Homo sapiens, H1975 (EGFR T790M/L858R), class symbol
How it was run: as §1

[4] = system: HCC827; test: Cell anti-proliferation experiment (CTG); format: cell-based; settings: Homo sapiens, HCC827 (exon 19 deletion), class symbol
How it was run: as §1

[5] = system: PC-9; test: Cell anti-proliferation experiment (CTG); format: cell-based; settings: Homo sapiens, PC-9 (EGFR exon 19 deletion), class symbol
How it was run: as §1

[6] = molecular target: EGFR in Baf3-19del-T790M-C797S (Homo sapiens, UniProt P00533, C797S/DEL746-750/T790M); test: EGFR PROTAC HTRF experiment (total EGFR degradation); format: cell-based
Procedure: (§2) [table] Among them, B[…] -C797S (abbreviated as Baf3-DTC) is a stable Ba/F3 clone expressing exogenous EGFR gene bearing T790M, C797S and […] triple amino acid mutations, purchased from KYinno; Baf3-L858R-T790M - C797S (abbreviated as Baf3-LTC) is a stable Ba/F3 clone expressing exogenous EGFR gene bearing […], T790M, C797S triple mutations, purchased from KYinno. [table] [table] Dilutded Eu and d2 antibodies 2μl per well with detection buffer 20-fold. Then mixed the two antibody vials thoroughly. [table] Opened EnVision , locate the HTRF program, configured the board, and then read […]. The fitted curve, DC50 and Dmax of this compound could be generated using GraphPad Prism .

[7] = molecular target: EGFR in Baf3-L858R-T790M-C797S (Homo sapiens, UniProt P00533, C797S/L858R/T790M); test: as above; format: cell-based
Procedure: as §2

[8] = Pharmacokinetic test of CD-1 mice; format: in vivo; parameters: AUC(0-t) / AUC(0-inf): concentration or dose not given beside the values; settings: male CD-1 mice, single oral gavage (PO), plasma; for AUC(0-inf) / AUC(0-t) / Cmax / MRT last / Tmax: mouse
Procedure: Plasma was collected from male CD-1 mice after a single gavage administration of the test substance. The plasma was then analyzed to calculate pharmacokinetic parameters.
The solvent is 5% DMSO + 10% Solutol HS-15 + 85% Saline.
Formulation preparation process: Accurately weighed the compound powder, added appropriate volumes of DMSO, Solutol and physiological saline in sequence, and vortexed sonicate at each step to finally form a homogeneous formulation solution.
Experimental animals were housed in the SPF-grade animal facility of Suzhou Xihua New Drug Development Co., Ltd. (License No.: SYXK(Su)2021-0019). Animals were fed normally for at least 3 days after purchase before the experiment, and each mouse was marked with a tail tag. Animals in the oral administration group were fasted overnight the day before administration, and were resumed feeding 4 hours later, with free access to water. Table 4. Sources and Number of Experimental Animals […]
Before administration, checked the state of the administration formulation and ensured its homogeneity by vortexing, stirring or shaking. Calculated the theoretical administration volume for each CD-1 mouse in each group according to the following formula. Theoretical administration volume (mL); = (Dose (mg⋅kg^−1))/(formulation concentration (mg⋅mL^−1)) × animal body weight (kg) [formula]
Table 5 Sample Collection Information
The collected blood was placed in test tubes containing the anticoagulant EDTA-K2 (15 % EDTA-K2 solution), stored on moist ice, and centrifuged within 45 min (1,500 g, 2-8 °C, 10 min). Plasma was then collected. The plasma was stored in pre-chilled centrifuge tubes, flash-frozen on dry ice, and subsequently stored in an ultra-low temperature freezer at -60 °C or lower until shipment.
A quantitative detection method for the analyte was established using Shimadzu liquid chromatography and Triple Quad™ 6500+AB mass spectrometry. The concentration of the parent drug in plasma was analyzed. The analytical results were controlled for variation using quality control samples, with the accuracy of the quality control samples expected to be between 80% and 120%.
The main pharmacokinetic parameters were calculated using a non-compartmental model in Winnonlin Phoenix software. These parameters included the area under the curve (AUC(0-t) and AUC(0-∞)), elimination half-life (T1/2), maximum plasma concentration (Cmax ), and time to reach maximum plasma concentration (Tmax).

[9] = system: Baf3-19del- T790M -C797S (Baf3-DTC); test: Cell anti-proliferation experiment (CTG); format: cell-based; settings: 72 h, class symbol
How it was run: as §1

[10] = system: Baf3-L858R-T790M - C797S (Baf3-LTC); test: Cell anti-proliferation experiment (CTG); format: cell-based; settings: 72 h, class symbol
How it was run: as §1

Chain of EGFR in Baf3-L858R-T790M-C797S (P00533 25-1210 T790M/C797S/L858R): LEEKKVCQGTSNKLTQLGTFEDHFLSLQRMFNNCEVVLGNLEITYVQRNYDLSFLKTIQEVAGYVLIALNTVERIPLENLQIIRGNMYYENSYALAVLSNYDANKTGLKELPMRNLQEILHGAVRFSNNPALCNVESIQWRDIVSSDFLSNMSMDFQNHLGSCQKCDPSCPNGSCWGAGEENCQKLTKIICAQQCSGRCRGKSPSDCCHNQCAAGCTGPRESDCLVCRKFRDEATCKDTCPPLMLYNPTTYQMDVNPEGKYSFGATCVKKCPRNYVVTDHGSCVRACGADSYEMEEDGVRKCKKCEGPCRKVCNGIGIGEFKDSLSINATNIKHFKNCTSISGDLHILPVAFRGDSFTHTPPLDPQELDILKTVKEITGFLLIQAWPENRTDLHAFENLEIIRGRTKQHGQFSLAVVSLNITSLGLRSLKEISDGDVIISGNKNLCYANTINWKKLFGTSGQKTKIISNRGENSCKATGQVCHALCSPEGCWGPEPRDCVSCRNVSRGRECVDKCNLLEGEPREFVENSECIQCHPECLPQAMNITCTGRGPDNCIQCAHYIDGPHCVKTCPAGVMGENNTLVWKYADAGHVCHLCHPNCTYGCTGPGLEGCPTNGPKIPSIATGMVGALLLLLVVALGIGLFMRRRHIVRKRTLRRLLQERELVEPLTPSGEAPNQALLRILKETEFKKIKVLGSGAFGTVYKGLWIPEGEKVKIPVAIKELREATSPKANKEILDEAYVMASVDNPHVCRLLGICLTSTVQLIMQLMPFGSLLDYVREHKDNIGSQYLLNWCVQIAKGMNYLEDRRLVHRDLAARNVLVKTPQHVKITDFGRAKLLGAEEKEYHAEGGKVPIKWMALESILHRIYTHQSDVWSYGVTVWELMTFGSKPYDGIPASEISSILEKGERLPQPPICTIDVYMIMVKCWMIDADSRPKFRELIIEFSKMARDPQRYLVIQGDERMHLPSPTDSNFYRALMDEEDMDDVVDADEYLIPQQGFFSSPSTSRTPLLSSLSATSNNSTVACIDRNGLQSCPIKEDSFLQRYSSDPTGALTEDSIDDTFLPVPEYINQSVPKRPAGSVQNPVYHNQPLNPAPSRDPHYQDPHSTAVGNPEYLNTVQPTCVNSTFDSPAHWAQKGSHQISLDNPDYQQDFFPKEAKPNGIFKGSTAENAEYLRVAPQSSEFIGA
Chain of EGFR in Baf3-19del-T790M-C797S (P00533 with tags, fused parts or gaps DEL746-750/T790M/C797S): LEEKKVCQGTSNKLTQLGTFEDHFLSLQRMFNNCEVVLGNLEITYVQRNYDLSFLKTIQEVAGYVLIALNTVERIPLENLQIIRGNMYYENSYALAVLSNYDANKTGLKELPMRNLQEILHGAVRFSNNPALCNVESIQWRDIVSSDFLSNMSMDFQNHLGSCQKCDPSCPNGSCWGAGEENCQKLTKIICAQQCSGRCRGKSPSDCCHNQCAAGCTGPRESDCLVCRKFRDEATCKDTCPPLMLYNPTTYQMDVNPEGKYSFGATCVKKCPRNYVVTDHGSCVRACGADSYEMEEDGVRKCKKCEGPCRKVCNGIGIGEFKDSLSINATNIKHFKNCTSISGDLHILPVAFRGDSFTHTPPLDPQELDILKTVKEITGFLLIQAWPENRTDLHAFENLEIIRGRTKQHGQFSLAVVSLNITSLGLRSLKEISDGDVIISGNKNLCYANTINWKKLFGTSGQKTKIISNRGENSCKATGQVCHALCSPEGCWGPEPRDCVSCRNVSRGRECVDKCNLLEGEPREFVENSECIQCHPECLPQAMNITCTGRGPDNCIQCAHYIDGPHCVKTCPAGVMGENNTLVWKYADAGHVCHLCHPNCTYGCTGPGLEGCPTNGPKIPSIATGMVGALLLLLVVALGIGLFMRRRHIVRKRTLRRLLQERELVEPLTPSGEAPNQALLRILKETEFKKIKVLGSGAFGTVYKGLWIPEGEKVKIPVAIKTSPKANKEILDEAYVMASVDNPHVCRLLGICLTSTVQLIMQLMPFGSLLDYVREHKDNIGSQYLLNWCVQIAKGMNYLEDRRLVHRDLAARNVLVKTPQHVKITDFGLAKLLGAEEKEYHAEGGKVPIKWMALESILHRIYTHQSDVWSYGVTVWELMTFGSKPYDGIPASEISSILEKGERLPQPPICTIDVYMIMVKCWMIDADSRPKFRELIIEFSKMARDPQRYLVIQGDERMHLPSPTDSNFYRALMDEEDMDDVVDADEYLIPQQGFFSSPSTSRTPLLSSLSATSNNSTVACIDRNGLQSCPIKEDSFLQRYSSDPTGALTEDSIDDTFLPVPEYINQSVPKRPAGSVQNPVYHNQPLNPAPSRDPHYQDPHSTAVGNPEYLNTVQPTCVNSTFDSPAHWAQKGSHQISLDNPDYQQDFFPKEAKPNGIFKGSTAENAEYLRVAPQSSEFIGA

Structure (SMILES): CCc1cc(Nc2ncc(Cl)c(Nc3ccccc3C(=O)NC)n2)c(OC)cc1N1CCN(C(=O)CN2CCC(c3ccc4c(N5CCC(=O)NC5=O)nn(C)c4c3)C(F)(F)C2)CC1 (centres unmarked) [Comparative Example 1-1, reference compound]
IC50 ([1]; A-431, 72 hours): 100 to 1000 nM | IC50 ([2]; 72 hours): 10 to 100 nM | IC50 ([3]; NCI-H1975, 72 hours): 10 to 100 nM | IC50 ([4]; 72 hours): 100 to 1000 nM | IC50 ([5]; 72 hours): 100 to 1000 nM | DC50 ([6]; read-out: Baf3-DTC DC50; Baf3-DTC, incubated 16 hours, HTRF total EGFR): 10 to 100 nM | Dmax ([6]; read-out: Baf3-DTC Dmax): 70 to 100% | DC50 ([7]; read-out: Baf3-LTC DC50; Baf3-LTC, incubated 16 hours, HTRF total EGFR): 10 to 100 nM | Dmax ([7]; read-out: Baf3-LTC Dmax): 70 to 100% | HL_ [8]: 2.41 h | AUC(0-inf) [8]: 14300 ng·h/mL | AUC(0-t) [8]: 14300 ng·h/mL | Cmax [8]: 1740 ng/mL | MRT last [8]: 6.06 h | Tmax [8]: 2 h

IC50 ([1]; A-431, 72 h): > 1000 nM | IC50 ([2]; A549, 72 h): > 1000 nM | IC50 [9]: 10 to 100 nM | IC50 [10]: 10 to 100 nM | IC50 ([3]; NCI-H1975, 72 h): 10 to 100 nM | IC50 ([4]; HCC827, 72 h): > 1000 nM | IC50 ([5]; PC-9, 72 h): > 1000 nM | DC50 ([6]; Baf3-DTC, incubated 16 hours, HTRF total EGFR; read-out: Baf3-DTC DC50): 100 to 1000 nM | Dmax ([6]; Baf3-DTC, incubated 16 hours, HTRF total EGFR; read-out: Baf3-DTC Dmax): 70 to 100% | DC50 ([7]; Baf3-LTC, incubated 16 hours, HTRF total EGFR; read-out: Baf3-LTC DC50): 100 to 1000 nM | Dmax ([7]; Baf3-LTC, incubated 16 hours, HTRF total EGFR; read-out: Baf3-LTC Dmax): 70 to 100% | HL_ [8]: 2.67 h | AUC(0-inf) [8]: 28800 ng·h/mL | AUC(0-t) [8]: 28800 ng·h/mL | Cmax [8]: 3170 ng/mL | MRT last [8]: 6.01 h | Tmax [8]: 2 h
Structure (SMILES): CCc1cc(Nc2ncc(Br)c(Nc3ccccc3C(=O)NC)n2)c(OC)cc1N1CCN(C(=O)CN2CCC(c3cc4c(cc3F)c(N3CCC(=O)NC3=O)nn4C)C(F)(F)C2)CC1 (centres unmarked) [TA-004]

Structure (SMILES): CCc1cc(Nc2ncc(Cl)c(Nc3ccccc3P(C)(C)=O)n2)c(OC)cc1N1CCN(C(=O)CN2CCC(c3cc4c(cc3F)c(N3CCC(=O)NC3=O)nn4C)C(F)(F)C2)CC1 (centres unmarked) [TA-005]
HL_ [8]: 2.28 h | AUC(0-inf) [8]: 36300 ng·h/mL | AUC(0-t) [8]: 36300 ng·h/mL | Cmax [8]: 5970 ng/mL | MRT last [8]: 4.59 h | Tmax [8]: 1 h
